One assay has as its target T1, Human FXIIa (Homo sapiens, UniProt P00748).
T1 construct: active coagulation factor XII (FXIIa); purchased Enzyme Research Labs
T1 sequence (P00748 373-615 limits assumed): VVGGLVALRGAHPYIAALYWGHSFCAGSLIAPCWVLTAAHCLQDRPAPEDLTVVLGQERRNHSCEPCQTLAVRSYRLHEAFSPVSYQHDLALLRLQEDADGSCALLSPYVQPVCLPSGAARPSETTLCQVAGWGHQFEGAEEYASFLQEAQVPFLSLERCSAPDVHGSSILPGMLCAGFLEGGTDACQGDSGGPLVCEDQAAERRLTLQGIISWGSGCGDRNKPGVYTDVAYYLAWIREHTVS
T1 sequence (P00748 20-372 partner limits assumed): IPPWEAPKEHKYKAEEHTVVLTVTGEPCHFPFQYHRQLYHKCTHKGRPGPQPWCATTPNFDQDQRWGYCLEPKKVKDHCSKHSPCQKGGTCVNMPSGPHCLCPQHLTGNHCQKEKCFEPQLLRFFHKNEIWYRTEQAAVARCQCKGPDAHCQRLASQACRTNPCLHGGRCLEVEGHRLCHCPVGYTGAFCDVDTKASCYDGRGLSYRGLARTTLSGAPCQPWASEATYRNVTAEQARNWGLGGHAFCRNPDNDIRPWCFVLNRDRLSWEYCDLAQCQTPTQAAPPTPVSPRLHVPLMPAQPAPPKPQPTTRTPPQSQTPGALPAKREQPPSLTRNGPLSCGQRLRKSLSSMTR
Briefly: Factor XIIa (FXIIa) inhibitory activity, chromogenic substrate assay. Format: biochemical. The note with it: Human FXIIa 12.5 nM, Pefachrome XIIa 400 μM, 10 min preincubation. An outline of the steps: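 Buffer was 0.5× HBSS with 25 mM HEPES pH 7.4 and 0.5× TBS-Tween 0.05%. Enzyme and compound (about 1–100 μM) were preincubated 10 min at room temperature, then Pefachrome XIIa was added at 400 μM final. Substrate cleavage was followed as the rate of A405 change at 37 °C.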

Another assay addresses T2, Human alpha-thrombin (Homo sapiens, UniProt P00734).
T2 construct: Human alpha-thrombin (Enzyme Research Labs); purchased Enzyme Research Labs
Briefly: Thrombin counterscreen for selectivity, fluorogenic substrate assay. Format: biochemical. The note with it: Human alpha-thrombin 12.5 nM, Boc-Val-Pro-Arg-AMC 20 μM, 10 min preincubation. The protocol:
Counterscreens for Selectivity:
In a 96-well white opaque plate, 80 μl of assay buffer was added to each well. Test compounds were added, and serially diluted as above, to generate a concentration range of approximately 1-100 μM. […] 80 μl of this enzyme solution was added to the assay wells. The enzyme/compound mixtures were incubated for 10 minutes at room temperature. Fluorogenic substrate (Boc-Val-Pro-Arg-7-amido-4-methylcoumarin; Sigma) was added to assay wells at a final concentration of 20 μM. The assay plate was spun for 1 minute at 1500 g and then read at 37° C. in a SpectraMax M2 plate reader (λex=380 nm and λem=460 nm). Activity was quantified as the rate of change in fluorescence, which corresponds to the rate of substrate cleavage.
A general note: Counterscreens check selectivity or assay interference.

Structures are written as SMILES. A value given as a limit tells only on which side of the number the result lay.

As for `Cn1ccc2c(C(=O)n3nc(N)c4c3CCCC4)cccc21` (single isomer, unassigned) [Example 8, (3-amino-4,5,6,7-tetrahydroindazol-1-yl)(1-methyl-1H-indol-4-yl)methanone], the half-maximal inhibitory concentration (IC50) on Human FXIIa and against Human alpha-thrombin was over 50 µM each time.
Take `Cc1cc2c(C(=O)n3nc4c(c3N)CCCC4)cccc2[nH]1` (single isomer, unassigned) [Example 9, (3-Amino-4,5,6,7-tetrahydroindazol-2-yl)(2-methyl-1H-indol-4-yl)methanone]: the half-inhibitory concentration (IC50) was found to be 0.02 µM at Human FXIIa and 40 µM on Human alpha-thrombin.
For the molecule `CCc1cscc1C(=O)n1nc2c(c1N)CCCC2` (single isomer, unassigned) [Example 11, (3-Amino-4,5,6,7-tetrahydroindazol-2-yl)(4-ethylthiophen-3-yl)methanone], the concentration for half-maximal inhibition (IC50) at Human FXIIa was 0.2 µM; against Human alpha-thrombin it was over 50 µM.
In the same order, the values of `CCc1cscc1C(=O)n1nc(N)c2c1CCCC2` (single isomer, unassigned) [Example 12, (3-amino-4,5,6,7-tetrahydroindazol-1-yl)(4-ethylthiophen-3-yl)methanone] are over 50 µM and over 50 µM.
On the same counts, the results for `Nc1c2c(nn1C(=O)C1OCCc3ccccc31)CCCC2` (single isomer, unassigned) [Example 13, (3-Amino-4,5,6,7-tetrahydroindazol-2-yl)(isochroman-1-yl)methanone] are 5.6 µM and 77 µM.
On to `Nc1nn(C(=O)C2OCCc3ccccc32)c2c1CCCC2` (single isomer, unassigned) [Example 15, (3-amino-4,5,6,7-tetrahydroindazol-1-yl)(isochroman-1-yl)methanone], for which the half-inhibitory concentration (IC50) on Human FXIIa and at Human alpha-thrombin was over 100 µM in each case.
On to `Cc1csc(C)c1C(=O)n1nc(N)c2c1CCCC2` (single isomer, unassigned) [Example 17, (3-amino-4,5,6,7-tetrahydroindazol-1-yl)(2,4-dimethylthiophen-3-yl)methanone], for which the IC50 at Human FXIIa and against Human alpha-thrombin was over 100 µM each time.
As for `CCc1csc(C)c1C(=O)n1nc2c(c1N)CCCC2` (single isomer, unassigned) [Example 18, (3-Amino-4,5,6,7-tetrahydroindazol-2-yl)(4-ethyl-2-methylthiophen-3-yl)methanone], the IC50 was 5 µM at Human FXIIa and over 100 µM at Human alpha-thrombin.
Consider `CCc1csc(C)c1C(=O)n1nc(N)c2c1CCCC2` (single isomer, unassigned) [Example 19, (3-amino-4,5,6,7-tetrahydroindazol-1-yl)(4-ethyl-2-methylthiophen-3-yl)methanone], for which the concentration for half-maximal inhibition (IC50) at Human FXIIa and against Human alpha-thrombin was over 100 µM each time.
As for `Nc1c2c(nn1C(=O)c1cccc3c1ccn3-c1ccccc1)CCCC2` (single isomer, unassigned) [Example 20, (3-amino-4,5,6,7-tetrahydroindazol-2-yl)(1-phenyl-1H-indol-4-yl)methanone], the results for the half-maximal inhibitory concentration (IC50) at Human FXIIa and against Human alpha-thrombin were 17.5 µM and over 100 µM, respectively.
Turning to `Cc1sc2ccccc2c1C(=O)n1nc2c(c1N)CCCC2` (single isomer, unassigned) [Example 23, (3-Amino-4,5,6,7-tetrahydroindazol-2-yl)(2-methylbenzo[b]thiophen-3-yl)methanone], the figures for the concentration for half-maximal inhibition (IC50) on Human FXIIa and against Human alpha-thrombin were 5 µM and over 100 µM, respectively.
With `Cc1sc2ccccc2c1C(=O)n1nc(N)c2c1CCCC2` (single isomer, unassigned) [Example 24, (3-amino-4,5,6,7-tetrahydroindazol-1-yl)(2-methylbenzo[b]thiophen-3-yl)methanone], the concentration for half-maximal inhibition (IC50) on Human FXIIa and at Human alpha-thrombin was over 100 µM each time.
Turning to `CC(C)c1cc2c(C(=O)n3nc4c(c3N)CCCC4)cccc2[nH]1` (single isomer, unassigned) [Example 51, (3-amino-4,5,6,7-tetrahydroindazol-2-yl)(2-isopropyl-1H-indol-4-yl)methanone], the concentration for half-maximal inhibition (IC50) on Human FXIIa was 0.4 µM; on Human alpha-thrombin it was over 50 µM.
For `Nc1c2c(nn1C(=O)c1cccc3[nH]c(C4CC4)cc13)CCCC2` (single isomer, unassigned) [Example 53, (3-amino-4,5,6,7-tetrahydroindazol-2-yl)(2-cyclopropyl-1H-indol-4-yl)methanone], the results for the concentration for half-maximal inhibition (IC50) against Human FXIIa and against Human alpha-thrombin were 0.02 µM and 28 µM, respectively.
In the same order, the values of `Nc1nn(C(=O)c2cccc3[nH]c(C4CC4)cc23)c2c1CCCC2` (single isomer, unassigned) [Example 54, (3-amino-4,5,6,7-tetrahydroindazol-1-yl)(2-cyclopropyl-1H-indol-4-yl)methanone] are 30 µM and over 85 µM.
In the case of `Nc1c2c(nn1C(=O)c1cccc3[nH]c(Cl)cc13)CCCC2` (single isomer, unassigned) [Example 55, (3-amino-4,5,6,7-tetrahydroindazol-2-yl)(2-chloro-1H-indol-4-yl)methanone], the half-inhibitory concentration (IC50) amounted to 0.01 µM on Human FXIIa and 20 µM against Human alpha-thrombin.
For the molecule `Nc1nn(C(=O)c2cccc3[nH]c(Cl)cc23)c2c1CCCC2` (single isomer, unassigned) [Example 56, (3-amino-4,5,6,7-tetrahydroindazol-1-yl)(2-chloro-1H-indol-4-yl)methanone], the concentration for half-maximal inhibition (IC50) was 29 µM at Human FXIIa and over 100 µM against Human alpha-thrombin.
Take `Cc1cc2c(C(=O)n3nc4c(c3N)CCCC4)cccc2o1` (single isomer, unassigned) [Example 58, (3-amino-4,5,6,7-tetrahydroindazol-2-yl)(2-methylbenzofuran-4-yl)methanone]: the half-inhibitory concentration (IC50) against Human FXIIa is 0.06 µM; against Human alpha-thrombin, 40 µM.
In the same order, the values of `Cc1cc2c(C(=O)n3nc(N)c4c3CCCC4)cccc2o1` (single isomer, unassigned) [Example 59, (3-amino-4,5,6,7-tetrahydroindazol-1-yl)(2-methylbenzofuran-4-yl)methanone] are over 100 µM and over 100 µM.
In the same order, the values of `Nc1c2c(nn1C(=O)c1cccc3[nH]c(Br)cc13)CCCC2` (single isomer, unassigned) [Example 62, (3-amino-4,5,6,7-tetrahydroindazol-2-yl)(2-bromo-1H-indol-4-yl)methanone] are 0.01 µM and 20 µM.
In the same order, the values of `Nc1nn(C(=O)c2cccc3[nH]c(Br)cc23)c2c1CCCC2` (single isomer, unassigned) [Example 63, (3-amino-4,5,6,7-tetrahydroindazol-1-yl)(2-bromo-1H-indol-4-yl)methanone] are 65 µM and over 100 µM.
For `Nc1nn(C(=O)c2cccc3c2CC(=O)N3)c2c1CCCC2` (single isomer, unassigned) [Example 65, 4-(3-amino-4,5,6,7-tetrahydro-1H-indazole-1-carbonyl)indolin-2-one], the IC50 at Human FXIIa and against Human alpha-thrombin was over 100 µM in each case.
Regarding `CCc1cc2c(C(=O)n3nc(N)c4c3CCCC4)cccc2n1C` (single isomer, unassigned) [Example 67, (3-amino-4,5,6,7-tetrahydroindazol-1-yl)(2-ethyl-1-methyl-1H-indol-4-yl)methanone], the IC50 on Human FXIIa and against Human alpha-thrombin was over 50 µM throughout.
`CCc1cc2c(C(=O)n3nc4c(c3N)CCCC4)cccc2n1CC` (single isomer, unassigned) [Example 68, (3-amino-4,5,6,7-tetrahydroindazol-2-yl)(1,2-diethyl-1H-indol-4-yl)methanone]: the figures for the 50% inhibitory concentration (IC50) at Human FXIIa and against Human alpha-thrombin were 0.01 µM and 40 µM, respectively.
As to `CCc1cc2c(C(=O)n3nc(N)c4c3CCCC4)cccc2n1CC` (single isomer, unassigned) [Example 69, (3-amino-4,5,6,7-tetrahydroindazol-1-yl)(1,2-diethyl-1H-indol-4-yl)methanone], the half-inhibitory concentration (IC50) was 35 µM against Human FXIIa and over 100 µM on Human alpha-thrombin.
In the same order, the values of `C=Cc1cc2c(C(=O)n3nc4c(c3N)CCCC4)cccc2[nH]1` (single isomer, unassigned) [Example 70, (3-amino-4,5,6,7-tetrahydroindazol-2-yl)(2-vinyl-1H-indol-4-yl)methanone] are 0.02 µM and 13 µM.
For the molecule `CN1CCC(C(=O)n2nc3c(c2N)CCCC3)c2ccccc21` (single isomer, unassigned) [Example 73, (R*)-(3-amino-4,5,6,7-tetrahydroindazol-2-yl)(1-methyl-1,2,3,4-tetrahydroquinolin-4-yl)methanone], the IC50 against Human FXIIa and at Human alpha-thrombin was over 50 µM each time.

The term IC50 denotes the concentration that gives 50% inhibition. A low value points to greater potency in that assay.

(Values after US10538512B2, “Aminoacylindazole immunomodulators for treatment of autoimmune diseases” (The Rockefeller University, priority 2016, dated 2020).)
